Our source for the IC50 values is article PMC10848157, “Assessing NH300094, a novel dopamine and serotonin receptor modulator with cognitive enhancement property for treating schizophrenia” (Frontiers in Pharmacology, 2024).

The target in this assay is T1, M1 receptor (Homo sapiens, UniProt P11229).
T1 sequence (P11229 1-460): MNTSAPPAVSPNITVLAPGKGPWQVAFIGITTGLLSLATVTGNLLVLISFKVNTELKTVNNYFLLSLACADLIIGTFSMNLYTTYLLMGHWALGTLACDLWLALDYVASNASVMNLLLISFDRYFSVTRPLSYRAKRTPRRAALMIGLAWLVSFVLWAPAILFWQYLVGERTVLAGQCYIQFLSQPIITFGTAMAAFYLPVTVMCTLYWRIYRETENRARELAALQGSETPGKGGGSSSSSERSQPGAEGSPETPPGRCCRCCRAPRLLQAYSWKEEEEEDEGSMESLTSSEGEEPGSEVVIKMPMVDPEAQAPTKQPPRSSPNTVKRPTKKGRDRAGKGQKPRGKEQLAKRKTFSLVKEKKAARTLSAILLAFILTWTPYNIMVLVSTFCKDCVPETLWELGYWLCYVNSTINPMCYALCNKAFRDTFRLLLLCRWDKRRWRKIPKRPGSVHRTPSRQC
The assay is described as follows: M1 receptor functional assay (calcium flow, FLIPR). The format is cell-based. The conditions noted are these: CHO-K1/M1 cells, read-out: M1R, IC50.

A word on the IC50: it is the concentration needed to halve the response being measured.

As for `O=C1CCc2cc(OCCCN3CCC(c4noc5cc(F)ccc45)CC3)cc3c2N1CC3` [NH300094, 8-(3-(4-(6-fluorobenzo [d]isoxazol-3-yl)piperidin-1-yl)propoxy)-1,2,5,6-tetrahydro-4H-pyrrolo [3,2,1-ij] quinolin-4-one], the IC50 turned out to be 3.52 µM.
